Target: T1, Angiotensin II-Rezeptor (Rattus norvegicus, UniProt P25095)
T1 construct: Das Gewebe (Rattenlunge) wird in Tris-Puffer; from tissue; host or cells: rat lung homogenate (membrane pellet, 20,000 x g)
T1 sequence (P25095 1-359): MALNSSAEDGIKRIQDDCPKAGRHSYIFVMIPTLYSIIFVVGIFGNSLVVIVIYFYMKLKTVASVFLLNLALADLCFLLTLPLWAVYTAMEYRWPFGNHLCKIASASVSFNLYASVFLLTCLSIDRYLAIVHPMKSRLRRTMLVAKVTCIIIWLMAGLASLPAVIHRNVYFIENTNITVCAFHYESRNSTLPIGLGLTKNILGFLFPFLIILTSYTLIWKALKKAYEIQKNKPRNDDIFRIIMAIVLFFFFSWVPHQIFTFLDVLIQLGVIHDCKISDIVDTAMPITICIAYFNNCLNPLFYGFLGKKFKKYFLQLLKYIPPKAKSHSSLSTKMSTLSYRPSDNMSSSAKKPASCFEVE
Assay: Angiotensin II receptor binding: displacement of [125I]-angiotensin II in rat lung homogenate
Parameters: species or system Ratte
Conditions: rat lung (Rattenlunge) homogenate, 50 pM [125I]-Angiotensin II, 60 min at 37°C, IC50 from dose-response curve; read-out: IC₅₀
Protocol: Methodenbeschreibung Angiotensin II-Rezeptorbindung
Das Gewebe (Rattenlunge) wird in Tris-Puffer (50 mMol Tris, 150 mMol NaCl, 5 mMol EDTA, pH 7.40) homogenisiert und zweimal je 20 Min. bei 20.000 x g zentrifugiert. Das endgültige Pellet wird in Inkubations-Puffer (50 mMol Tris, 5 mMol MgCl₂, 0,2 % BSA, pH 7,40) 1:75, bezogen auf das Feuchtgewicht des Gewebes, resuspendiert. Je 0,1 ml Homogenat wird für 60 Min. bei 37°C mit 50 pM [125^I]-Angiotensin II (NEN, Dreieich, FRG) und steigenden Konzentrationen der Testsubstanz in einem Gesamtvolumen von 0,25 ml inkubiert. Die Inkubation wird durch rasche Filtration durch Glasfiber-Filtermatten beendet. Die Filter werden je 4 ml eiskaltem Puffer (25 mMol Tris, 2.5 mMol MgCl₂, 0,1 % BSA, pH 7,40) gewaschen. Die gebundene Radioaktivität wird in einem Gamma-Counter ermittelt. Aus der Dosis-Wirkungskurve wird der entsprechende IC₅₀-Wert ermittelt.

| IC50 | Structure (SMILES) |
| --- | --- |
| 7.4 nM | CCc1nc2c(C)cc(-c3nc4cc(F)ccc4n3C)cc2n1Cc1ccc(-c2ccccc2C(=O)O)cc1 [Substanz A, 4'-[(2-Ethyl-4-methyl-6-(1-methyl-5-fluor-benzimidazol-2-yl)-benzimidazol-1-yl)-methyl]-biphenyl-2-carbonsäure] |
| 3.3 nM | CCOc1nc2c(C)cc(-c3nc4ccccc4n3C)cc2n1Cc1ccc(-c2ccccc2-c2nnn[nH]2)cc1 [Substanz E, 4'-[(2-Ethoxy-4-methyl-6-(1-methyl-benzimidazol-2-yl)-benzimidazol-1-yl)-methyl]-2-(1H-tetrazol-5-yl)-biphenyl] |

The next lines start with the molecule.

| Structure (SMILES) | IC50 |
| --- | --- |
| Cc1cc(-c2cn3ccccc3n2)cc2c1nc(C1CC1)n2Cc1ccc(-c2ccccc2C(=O)O)cc1 [Substanz C, 4'-[(2-Cyclopropyl-4-methyl-6-(imidazo[1,2-a]pyridin-2-yl)-benzimidazol-1-yl)-methyl]-biphenyl-2-carbonsäure] | 1.7 nM |
| CCCc1nc2c(C)cc(N3CCCCS3(=O)=O)cc2n1Cc1ccc(-c2ccccc2C(=O)O)cc1 [Substanz B, 4'-[(2-n-Propyl-4-methyl-6-(butansultam-1-yl)-benzimidazol-1-yl)-methyl]-biphenyl-2-carbonsäure] | 0.9 nM |
| Cc1cc(-c2cn3c(n2)CCCC3)cc2c1nc(C1CC1)n2Cc1ccc(-c2ccccc2C(=O)O)cc1 [Substanz D, 4'-[(2-Cyclopropyl-4-methyl-6-(5,6,7,8-tetrahydro-imidazo[1,2-a]pyridin-2-yl)-benzimidazol-1-yl)-methyl]-biphenyl-2-carbonsäure] | 1.3 nM |

— patent publication EP0581166A1, “Benzimidazoles, process for their preparation and their use as angiotensin-II antagonists” (Dr. Karl Thomae GmbH, priority 1992, dated 1994)
